In one data set the target is T1, ovine COX-1 (Ovis aries, UniProt P05979).
T1 construct: purchased Cayman Chemical, Ann Arbor, MI, USA
T1 sequence (P05979 25-600): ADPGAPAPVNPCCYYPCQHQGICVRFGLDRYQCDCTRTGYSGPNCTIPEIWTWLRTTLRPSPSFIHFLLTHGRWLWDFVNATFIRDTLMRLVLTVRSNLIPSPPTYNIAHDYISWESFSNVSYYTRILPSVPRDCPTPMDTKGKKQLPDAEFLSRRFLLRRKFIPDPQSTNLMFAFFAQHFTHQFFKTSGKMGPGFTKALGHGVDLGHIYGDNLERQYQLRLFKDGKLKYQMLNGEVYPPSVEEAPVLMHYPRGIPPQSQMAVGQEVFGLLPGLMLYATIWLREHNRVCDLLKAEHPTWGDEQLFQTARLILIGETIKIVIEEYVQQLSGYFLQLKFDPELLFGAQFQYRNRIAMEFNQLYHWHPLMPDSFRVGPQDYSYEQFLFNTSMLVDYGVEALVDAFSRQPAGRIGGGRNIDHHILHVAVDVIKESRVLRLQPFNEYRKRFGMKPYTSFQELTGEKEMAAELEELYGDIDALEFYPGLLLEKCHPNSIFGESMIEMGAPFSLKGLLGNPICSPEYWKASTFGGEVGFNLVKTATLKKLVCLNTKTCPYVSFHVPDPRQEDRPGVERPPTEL
As to the kind of experiment: In vitro ovine COX-1 enzyme inhibition (chemiluminescent enzyme assay kit, Cayman). It counts as biochemical. Conditions: ovine COX-1/COX-2 assay kit; means of two determinations, deviation < 10% of the mean. The protocol: (§1) The ability of the test compounds listed in Table 1 to inhibit ovine COX-1 and COX-2 (IC50 value, μM) was determined using the chemiluminescent enzyme assay kit (Cayman Chemical, Ann Arbor, MI, USA) according to our previously reported method.

The target in the next data set is T2, ovine COX-2 (Ovis aries, UniProt P79208).
T2 construct: purchased Cayman Chemical, Ann Arbor, MI, USA
T2 sequence (P79208 17-603): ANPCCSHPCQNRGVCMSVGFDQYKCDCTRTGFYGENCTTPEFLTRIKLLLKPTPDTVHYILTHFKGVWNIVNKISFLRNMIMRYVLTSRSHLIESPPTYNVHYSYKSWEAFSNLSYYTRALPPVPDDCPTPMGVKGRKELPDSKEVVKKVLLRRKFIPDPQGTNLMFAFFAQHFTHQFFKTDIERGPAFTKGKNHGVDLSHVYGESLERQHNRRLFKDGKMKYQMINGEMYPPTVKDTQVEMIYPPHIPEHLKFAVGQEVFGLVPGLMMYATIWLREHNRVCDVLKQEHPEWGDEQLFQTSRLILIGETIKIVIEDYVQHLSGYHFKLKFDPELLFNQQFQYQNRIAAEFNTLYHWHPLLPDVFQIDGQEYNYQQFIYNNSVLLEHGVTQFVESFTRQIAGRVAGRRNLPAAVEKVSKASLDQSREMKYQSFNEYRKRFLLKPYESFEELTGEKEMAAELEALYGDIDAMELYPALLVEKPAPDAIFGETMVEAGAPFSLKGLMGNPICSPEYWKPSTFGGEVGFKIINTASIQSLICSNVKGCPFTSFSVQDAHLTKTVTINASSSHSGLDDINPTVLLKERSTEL
As to the kind of experiment: In vitro ovine COX-2 enzyme inhibition (chemiluminescent enzyme assay kit, Cayman). The conditions noted are these: for Selectivity index (SI): In vitro COX-2 selectivity index (COX-1 IC50/COX-2 IC50); for IC50: ovine COX-1/COX-2 assay kit, means of two determinations, deviation < 10% of the mean. The format is biochemical. The protocol:
as §1

Structures are written as SMILES.

In the case of `CS(=O)(=O)c1ccc(-c2cc(=O)c3ccccc3o2)cc1` [Compound 3, 2-[4-(Methylsulfonyl)phenyl]-4H-chromen-4-one], the melting point (commonly the temperature, or range, at which the solid turns liquid) amounted to 187 °C. Further, inhibition against ovine COX-1 was half-maximal at 10.8 µM (IC50). On ovine COX-2, the “Selectivity index (SI)” value amounted to 98.2 and half-maximal inhibition (IC50) required 0.11 µM.

Regarding `CS(=O)(=O)c1ccc(-c2oc3ccccc3c(=O)c2O)cc1` [Compound 4, 3-Hydroxy-2-[4-(methylsulfonyl)phenyl]-4H-chromen-4-one], the melting point lay in the range of 198 to 199 °C. Besides, on ovine COX-1, the IC50 (commonly the concentration that inhibits the measured activity by half) was found to be 9.79 µM. Besides, at ovine COX-2, the “Selectivity index (SI)” value is listed as 75.3 and the half-inhibitory concentration (IC50) amounted to 0.13 µM.

For `COc1c(-c2ccc(S(C)(=O)=O)cc2)oc2ccccc2c1=O` [Compound 5a, 3-Methoxy-2-[4-(methylsulfonyl)phenyl]-4H-chromen-4-one], the melting point fell in the range of 92 to 93 °C. The compound also yielded an IC50 at ovine COX-1 of 12.7 µM. On ovine COX-2, the “Selectivity index (SI)” value worked out at 126.5 and the IC50 came to 0.1 µM.

Consider `CCOc1c(-c2ccc(S(C)(=O)=O)cc2)oc2ccccc2c1=O` [Compound 5b, 3-Ethoxy-2-[4-(methylsulfonyl)phenyl]-4H-chromen-4-one], for which the melting point was in the range of 137 to 138 °C. Besides, the IC50 on ovine COX-1 stood at 13.4 µM. At ovine COX-2, the “Selectivity index (SI)” value turned out to be 149.1 and the IC50 came out at 0.09 µM.

`C=CCOc1c(-c2ccc(S(C)(=O)=O)cc2)oc2ccccc2c1=O` [Compound 5c, 3-(Allyloxy)-2-[4-(methylsulfonyl)phenyl]-4H-chromen-4-one]: the melting point lay in the range of 116 to 118 °C. The compound further yielded a half-inhibitory concentration (IC50) at ovine COX-1 of 13.8 µM. At ovine COX-2, the “Selectivity index (SI)” value worked out at 173.1 and it took 0.08 µM to reach half-maximal inhibition (IC50).

Regarding `CS(=O)(=O)c1ccc(-c2oc3ccccc3c(=O)c2OCc2ccccc2)cc1` [Compound 5d, 3-(Benzyloxy)-2-[4-(methylsulfonyl)phenyl]-4H-chromen-4-one], the melting point fell in the range of 140 to 142 °C. For the same compound, the IC50 at ovine COX-1 is 20.1 µM. Also, at ovine COX-2, the “Selectivity index (SI)” value is 287.1 and half-maximal inhibition (IC50) was put at 0.07 µM.

`CC(=O)Oc1c(-c2ccc(S(C)(=O)=O)cc2)oc2ccccc2c1=O` [Compound 6, 2-[4-(Methylsulfonyl)phenyl]-4-oxo-4H-chromen-3-yl acetate] returned a melting point of 175 °C. The IC50 against ovine COX-1 was found to be 15.6 µM. Further, at ovine COX-2, the “Selectivity index (SI)” value is given as 195.6 and the midpoint of inhibition, the IC50, lay at 0.08 µM.

(Values after paper PMC4727773, “Design, Synthesis, and Biological Evaluation of New 2-Phenyl-4H-chromen-4-one Derivatives as Selective Cyclooxygenase-2 Inhibitors” (Scientia Pharmaceutica, 2014).)
